Experimental data taken from ChEMBL document CHEMBL1201862, “PubChem BioAssay data set” (2004).
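Dose response: 5 concentrations. Exposure: 48 h. Format: 96-well plates. Endpoint: linear interpolation; highest concentration if not reached. GI50 = concentration required for 50% inhibition of growth.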 Calls of active or inactive are those of the source. Cut-off read from the data, not from the text of the source: active = GI50 up to about 1.1 µM and inactive = higher.

What was measured:
Test in all cases: NCI-60 cell line screen, 48 h
M19-MEL = system: M19-MEL
HT-29 = system: HT-29
KM-20L2 = system: KM-20L2
K562 = system: K562
OVCAR-5 = system: OVCAR-5
SN12C = system: SN12C
DMS-114 = system: DMS-114
SK-OV-3 = system: SK-OV-3
HL-60 = system: HL-60
HCT-15 = system: HCT-15
IGROV-1 = system: IGROV-1
SF-295 = system: SF-295
HOP-92 = system: HOP-92
HOP-62 = system: HOP-62
DLD-1 = system: DLD-1
SNB-75 = system: SNB-75
M14 = system: M14
MOLT-4 = system: MOLT-4
DMS-273 = system: DMS-273
MDA-N = system: MDA-N
SF-268 = system: SF-268
HCC 2998 = system: HCC 2998
HOP-18 = system: HOP-18
Malme-3M = system: Malme-3M
SNB-19 = system: SNB-19
LXFL 529 = system: LXFL 529
SR = system: SR
NCI-H522 = system: NCI-H522
COLO 205 = system: COLO 205
SNB-78 = system: SNB-78
XF498 = system: XF498
OVCAR-4 = system: OVCAR-4
SK-MEL-28 = system: SK-MEL-28
CCRF-CEM = system: CCRF-CEM
SW-620 = system: SW-620
LOX IMVI = system: LOX IMVI
HCT-116 = system: HCT-116
KM12 = system: KM12
OVCAR-3 = system: OVCAR-3
NCI-H226 = system: NCI-H226
NCI-H23 = system: NCI-H23
CAKI-1 = system: CAKI-1
RXF 393 = system: RXF 393
A498 = system: A498
SF-539 = system: SF-539
EKVX = system: EKVX
U-251 = system: U-251
RPMI-8226 = system: RPMI-8226
OVCAR-8 = system: OVCAR-8
UACC-257 = system: UACC-257
UO-31 = system: UO-31
SK-MEL-2 = system: SK-MEL-2
NCI-H460 = system: NCI-H460
ACHN = system: ACHN
786-0 = system: 786-0
SK-MEL-5 = system: SK-MEL-5
A549 = system: A549
UACC-62 = system: UACC-62
TK-10 = system: TK-10

`O=c1[nH]c2ccccc2n1C1CCN(CCCC(c2ccc(F)cc2)c2ccc(F)cc2)CC1` [PIMOZIDE] was tested, and the GI50 (M19-MEL) was 3810 nM (inactive), the GI50 (HT-29) was 2550 nM (inactive) and the GI50 (KM-20L2) was 2010 nM (inactive). For the same compound, the GI50 (K562) was 2880 nM (inactive), the GI50 (OVCAR-5) was 8000 nM (inactive) and the GI50 (SN12C) was 12200 nM (inactive). The GI50 (DMS-114) was 2220 nM (inactive), the GI50 (SK-OV-3) was 12800 nM (inactive) and the GI50 (HL-60) was 2370 nM (inactive). For the same compound, the GI50 (HCT-15) was 3100 nM, the GI50 (IGROV-1) was 13900 nM (inactive) and the GI50 (SF-295) was 4020 nM (inactive). The GI50 (HOP-92) was 3900 nM (inactive), the GI50 (HOP-62) was 10700 nM (inactive) and the GI50 (DLD-1) was 5740 nM (inactive). For the same compound, the GI50 (SNB-75) was 10800 nM (inactive), the GI50 (M14) was 2700 nM (inactive) and the GI50 (MOLT-4) was 3670 nM (inactive). The GI50 (DMS-273) was 3450 nM (inactive), the GI50 (MDA-N) was 9770 nM (inactive) and the GI50 (SF-268) was 12100 nM (inactive). The GI50 (HCC 2998) was 1900 nM (inactive), the GI50 (HOP-18) was 15600 nM (inactive) and the GI50 (Malme-3M) was 2050 nM (inactive). The GI50 (SNB-19) was 14500 nM (inactive), the GI50 (LXFL 529) was 3730 nM (inactive) and the GI50 (SR) was 2500 nM (inactive). For the same compound, the GI50 (NCI-H522) was 2810 nM (inactive), the GI50 (COLO 205) was 1690 nM (inactive) and the GI50 (SNB-78) was 15100 nM (inactive). For the same compound, the GI50 (XF498) was 4170 nM (inactive), the GI50 (OVCAR-4) was 8590 nM (inactive) and the GI50 (SK-MEL-28) was 2150 nM (inactive). The GI50 (CCRF-CEM) was 5510 nM (inactive).

`O=C1C/C(Br)=C\c2ccccc2-c2ccccc21` was tested, and the GI50 (M19-MEL) was 1870 nM (inactive), the GI50 (HT-29) was 2070 nM (inactive) and the GI50 (KM-20L2) was 2840 nM (inactive). The GI50 (K562) was 1060 nM (active), the GI50 (OVCAR-5) was 2690 nM (inactive) and the GI50 (SN12C) was 2040 nM (inactive). For the same compound, the GI50 (DMS-114) was 2790 nM (inactive), the GI50 (SK-OV-3) was 3030 nM (inactive) and the GI50 (SW-620) was 1390 nM (inactive). The GI50 (HL-60) was 1710 nM (inactive), the GI50 (LOX IMVI) was 869 nM (active) and the GI50 (HCT-15) was 1560 nM. For the same compound, the GI50 (IGROV-1) was 3100 nM (inactive), the GI50 (HCT-116) was 1800 nM (inactive) and the GI50 (SF-295) was 4980 nM (inactive). For the same compound, the GI50 (HOP-92) was 1850 nM (inactive), the GI50 (KM12) was 3520 nM (inactive) and the GI50 (OVCAR-3) was 2450 nM (inactive). For the same compound, the GI50 (NCI-H226) was 2660 nM (inactive), the GI50 (NCI-H23) was 3160 nM (inactive) and the GI50 (HOP-62) was 3050 nM (inactive). For the same compound, the GI50 (DLD-1) was 1110 nM (active), the GI50 (SNB-75) was 2260 nM (inactive) and the GI50 (CAKI-1) was 1980 nM (inactive). For the same compound, the GI50 (RXF 393) was 1430 nM (inactive), the GI50 (M14) was 2070 nM (inactive) and the GI50 (A498) was 8510 nM (inactive). The GI50 (MOLT-4) was 2160 nM (inactive), the GI50 (SF-539) was 2160 nM (inactive) and the GI50 (EKVX) was 9820 nM (inactive). The GI50 (DMS-273) was 2190 nM (inactive), the GI50 (U-251) was 2510 nM (inactive) and the GI50 (RPMI-8226) was 1520 nM (inactive). For the same compound, the GI50 (OVCAR-8) was 2190 nM (inactive), the GI50 (UACC-257) was 4190 nM (inactive) and the GI50 (SF-268) was 2850 nM (inactive). For the same compound, the GI50 (UO-31) was 2400 nM (inactive), the GI50 (HCC 2998) was 7140 nM (inactive) and the GI50 (HOP-18) was 4480 nM (inactive). The GI50 (Malme-3M) was 2160 nM (inactive), the GI50 (SNB-19) was 6890 nM (inactive) and the GI50 (SK-MEL-2) was 2700 nM (inactive). For the same compound, the GI50 (NCI-H460) was 2860 nM (inactive), the GI50 (LXFL 529) was 1730 nM (inactive) and the GI50 (SR) was 405 nM (active). The GI50 (NCI-H522) was 429 nM (active), the GI50 (ACHN) was 1910 nM (inactive) and the GI50 (COLO 205) was 3760 nM (inactive). For the same compound, the GI50 (786-0) was 1400 nM (inactive), the GI50 (SNB-78) was 3850 nM (inactive) and the GI50 (XF498) was 1760 nM (inactive). The GI50 (SK-MEL-5) was 5400 nM (inactive), the GI50 (OVCAR-4) was 2530 nM (inactive) and the GI50 (SK-MEL-28) was 1050 nM (active). For the same compound, the GI50 (A549) was 8260 nM (inactive), the GI50 (UACC-62) was 2230 nM (inactive) and the GI50 (CCRF-CEM) was 1060 nM (active). For the same compound, the GI50 (TK-10) was 4780 nM (inactive).
